Experimental data published in ChEMBL document CHEMBL3639003, “Heteroaryloxycarbocyclyl compounds as PDE10 inhibitors” (2015).

Target: cAMP and cAMP-inhibited cGMP 3',5'-cyclic phosphodiesterase 10A (Homo sapiens, UniProt Q9Y233)
Assay: IMAP TR-FRET Assay: Enzyme Activity. An IMAP TR-FRET assay was used to analyze the enzyme activity (Molecular Devices Corp., Sunnyvale Calif.). 5 uL, of serial diluted PDE10A (BPS Bioscience, San Diego, Calif.) or tissue homogenate was incubated with equal volumes of diluted fluorescein labeled cAMP or cGMP for 60 min in 384-well polystyrene assay plates (Corning, Corning, N.Y.) at room temperature. After incubation, the reaction was stopped by adding 60 uL, of diluted binding reagents and was incubated for 3 hours to overnight at room temperature. The plates were read on an Envision (Perkin Elmer, Waltham, Mass.) for time resolved fluorescence resonance energy transfer. The data were analyzed with GraphPad Prism (La Jolla, Calif.).Enzyme Inhibition. To check the inhibition profile, 5 uL, of serial diluted compounds were incubated with 5 uL, of diluted PDE10 enzyme (BPS Bioscience, San Diego, Calif.) or tissue homogenate in a 384-well polystyrene assay plate (Corning, Corning, N.Y.).

Sequence of cAMP and cAMP-inhibited cGMP 3',5'-cyclic phosphodiesterase 10A (Q9Y233 whole entry): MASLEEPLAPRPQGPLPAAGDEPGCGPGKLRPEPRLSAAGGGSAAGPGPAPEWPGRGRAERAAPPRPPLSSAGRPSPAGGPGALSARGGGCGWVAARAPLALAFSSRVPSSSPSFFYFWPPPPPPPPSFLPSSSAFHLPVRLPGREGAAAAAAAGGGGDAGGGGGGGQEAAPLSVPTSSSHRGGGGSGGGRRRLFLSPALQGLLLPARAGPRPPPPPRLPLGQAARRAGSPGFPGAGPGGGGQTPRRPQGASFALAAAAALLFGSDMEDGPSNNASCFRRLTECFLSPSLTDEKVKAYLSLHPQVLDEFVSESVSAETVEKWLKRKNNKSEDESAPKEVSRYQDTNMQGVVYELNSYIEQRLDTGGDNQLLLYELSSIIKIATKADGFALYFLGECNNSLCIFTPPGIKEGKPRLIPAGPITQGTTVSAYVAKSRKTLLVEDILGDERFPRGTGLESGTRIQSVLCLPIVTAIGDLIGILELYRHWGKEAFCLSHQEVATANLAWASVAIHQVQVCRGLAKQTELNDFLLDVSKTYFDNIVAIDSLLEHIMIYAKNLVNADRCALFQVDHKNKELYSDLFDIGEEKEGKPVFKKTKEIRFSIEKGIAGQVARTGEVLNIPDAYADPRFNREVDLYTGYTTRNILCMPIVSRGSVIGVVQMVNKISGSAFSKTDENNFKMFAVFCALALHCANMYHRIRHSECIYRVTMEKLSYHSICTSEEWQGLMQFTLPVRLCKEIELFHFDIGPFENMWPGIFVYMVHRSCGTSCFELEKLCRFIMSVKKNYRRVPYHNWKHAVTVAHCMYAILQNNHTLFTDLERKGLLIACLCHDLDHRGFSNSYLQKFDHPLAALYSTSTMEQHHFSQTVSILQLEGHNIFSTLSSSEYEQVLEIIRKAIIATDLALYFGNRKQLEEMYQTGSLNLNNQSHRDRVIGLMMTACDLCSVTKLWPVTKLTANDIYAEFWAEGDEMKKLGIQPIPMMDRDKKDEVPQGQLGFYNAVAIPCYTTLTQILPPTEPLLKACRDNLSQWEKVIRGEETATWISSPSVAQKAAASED

| IC50 [nM] | SMILES |
| --- | --- |
| 3.19 | c1cnc(O[C@H]2C[C@H](Nc3nc4ccccc4s3)C2)c(C2CCOCC2)c1 |
| 0.751 | c1cnc(O[C@H]2C[C@@H](Nc3nc4ccccc4s3)C2)c(C2CCOCC2)c1 |
| 4.23 | Cc1cnccc1-c1nccnc1O[C@H]1C[C@@H](Nc2nc3ccccc3s2)C1 |
| 20.5 | Cc1cc(-c2nccnc2O[C@H]2C[C@@H](Nc3nc4ccccc4s3)C2)ccn1 |
| 3.25 | Cc1ncc(-c2nccnc2O[C@H]2C[C@@H](Nc3nc4ccccc4s3)C2)cn1 |
| 7.66 | Clc1ccc(-c2nccnc2O[C@H]2C[C@@H](Nc3nc4ccccc4s3)C2)cn1 |
| 6.57 | COCC(=O)N1CCC(c2nccnc2O[C@H]2C[C@@H](Nc3nc4ccccc4s3)C2)CC1 |
| 17.5 | COC(=O)N1CC(c2nccnc2O[C@H]2C[C@@H](Nc3nc4ccccc4s3)C2)C1 |
| 3.18 | COC(=O)N1CCC(c2cccnc2O[C@H]2C[C@@H](Nc3nc4ccccc4s3)C2)CC1 |
| 3.16 | OCC1CCN(c2nccnc2O[C@H]2C[C@@H](Nc3nc4ccccc4s3)C2)CC1 |
| 22.4 | c1ccc2sc(N[C@H]3C[C@@H](Oc4nccnc4N4CCOCC4)C3)nc2c1 |
| 6.92 | CC1CCN(c2nccnc2O[C@H]2C[C@@H](Nc3nc4ccccc4s3)C2)C1 (some centres undefined) |
| 29.4 | CC1CCCN(c2nccnc2O[C@H]2C[C@@H](Nc3nc4ccccc4s3)C2)C1 (some centres undefined) |
| 11.1 | FC1(F)CCN(c2nccnc2O[C@H]2C[C@@H](Nc3nc4ccccc4s3)C2)C1 |
| 18.5 | O=S1(=O)CCN(c2nccnc2O[C@H]2C[C@@H](Nc3nc4ccccc4s3)C2)CC1 |
| 14.2 | O[C@@H]1CCN(c2nccnc2O[C@H]2C[C@@H](Nc3nc4ccccc4s3)C2)C1 |
| 17.5 | O[C@H]1CCN(c2nccnc2O[C@H]2C[C@@H](Nc3nc4ccccc4s3)C2)C1 |
| 2.31 | N#CC1CCN(c2nccnc2O[C@H]2C[C@@H](Nc3nc4ccccc4s3)C2)CC1 |
| 9.26 | CC(=O)N1CCN(c2nccnc2O[C@H]2C[C@@H](Nc3nc4ccccc4s3)C2)CC1 |
| 1.25 | N#CC1CCN(c2cccnc2O[C@H]2C[C@@H](Nc3nc4ccccc4s3)C2)CC1 |
| 4.24 | COC(=O)N1CCC(c2nccnc2O[C@H]2C[C@@H](Nc3nc4ccccc4s3)C2)CC1 |

The remaining lines, values behind:

| SMILES | IC50 [nM] |
| --- | --- |
| Cc1cc(-c2cccnc2O[C@H]2CC[C@H](Nc3nc4ccccc4s3)CC2)ccn1 | 19.6 |
| CC(=O)N1CCC(c2cccnc2O[C@H]2C[C@@H](Nc3ccc4ccccc4n3)C2)CC1 | 1.32 |
| NC(=O)c1ccc(-c2nccnc2O[C@H]2C[C@@H](Nc3ccc4ccccc4n3)C2)cn1 | 3.8 |
| Cc1ccnc(N[C@H]2CC[C@H](Oc3ncccc3C3CCOCC3)CC2)c1 | 150 |
| Cc1cccnc1N[C@H]1CC[C@H](Oc2ncccc2C2CCOCC2)CC1 | 46 |
| Cc1cccc(N[C@H]2CC[C@H](Oc3ncccc3C3CCOCC3)CC2)n1 | 1750 |
| c1cnc(O[C@H]2CC[C@H](Nc3ccc4ccccc4n3)CC2)c(C2CCOCC2)c1 | 91 |
| c1cnc(O[C@H]2CC[C@H](Nc3nc4ccccc4o3)CC2)c(C2CCOCC2)c1 | 12 |
| c1cnc(O[C@H]2CC[C@H](Nc3nc4ccccc4s3)CC2)c(C2CCOCC2)c1 | 32.5 |
| Cc1ccc(N[C@H]2C[C@H](Oc3ncccc3C3CCOCC3)C2)nc1 | 17.6 |
| CC(=O)N1CCC(c2nccnc2O[C@H]2C[C@@H](Nc3nc4ccccc4s3)C2)CC1 | 2.77 |
| CC(=O)N1CCC(c2nccnc2O[C@H]2C[C@H](Nc3ccc4ccccc4n3)C2)CC1 | 15.8 |
| O=C(c1ccccn1)C1CC(Oc2ncccc2C2CCOCC2)C1 (centres undefined) | 250 |
| CC(=O)N1CCC(c2nccnc2O[C@H]2C[C@@H](Nc3ccc(C)cn3)C2)CC1 | 66.1 |
| CC(=O)N1CCC(c2nccnc2O[C@H]2C[C@H](Nc3ccc(C)cn3)C2)CC1 | 84.6 |
| c1cnc(O[C@H]2C[C@@H](Nc3nc4ccccc4[nH]3)C2)c(C2CCOCC2)c1 | 1.53 |
| c1cnc(O[C@H]2C[C@H](Nc3nc4ccccc4[nH]3)C2)c(C2CCOCC2)c1 | 2.63 |
| Fc1cccc2sc(N[C@H]3C[C@@H](Oc4nccnc4C4CCOCC4)C3)nc12 | 13 |
| Fc1ccc2sc(N[C@H]3C[C@@H](Oc4nccnc4C4CCOCC4)C3)nc2c1 | 18.3 |
| Fc1ccc2nc(N[C@H]3C[C@@H](Oc4nccnc4C4CCOCC4)C3)sc2c1 | 15.1 |
| Fc1cnc(O[C@H]2C[C@@H](Nc3nc4c(F)cccc4s3)C2)c(C2CCOCC2)c1 | 5.43 |
| Fc1cnc(O[C@H]2C[C@@H](Nc3nc4cc(F)ccc4s3)C2)c(C2CCOCC2)c1 | 3.49 |

| SMILES | IC50 [nM] |
| --- | --- |
| Clc1ccc(C2=CCOCC2)c(O[C@H]2C[C@@H](Nc3nc4ccccc4s3)C2)n1 | 3.55 |
| COc1ncccc1-c1nccnc1O[C@H]1C[C@@H](Nc2nc3ccccc3s2)C1 | 4.11 |
| N#Cc1ccc(-c2nccnc2O[C@H]2C[C@@H](Nc3nc4ccccc4s3)C2)cn1 | 7.4 |
| Cc1ccc(-c2nccnc2O[C@H]2C[C@@H](Nc3nc4cc(F)ccc4s3)C2)cn1 | 19.7 |
| N#Cc1ccc(-c2nccnc2O[C@H]2C[C@@H](Nc3ccc4ccccc4n3)C2)cn1 | 8.35 |
| N#Cc1ccc(-c2nccnc2O[C@H]2C[C@@H](Nc3ncc4ccccc4n3)C2)cn1 | 7.71 |
| N#Cc1ccc(-c2cccnc2O[C@H]2C[C@H](Nc3nc4ccccc4s3)C2)cn1 | 2.97 |
| NC(=O)c1ccc(-c2nccnc2O[C@H]2C[C@@H](Nc3nc4ccccc4s3)C2)cn1 | 2.96 |
| NC(=O)c1ccc(-c2cccnc2O[C@H]2C[C@@H](Nc3nc4ccccc4s3)C2)cn1 | 0.129 |
| COCC(=O)N1CCC(c2nccnc2O[C@H]2C[C@@H](Nc3ccc4ccccc4n3)C2)CC1 | 5.06 |
| COCC(=O)N1CCC(c2cccnc2O[C@H]2C[C@@H](Nc3ccc4ccccc4n3)C2)CC1 | 0.948 |
| N#CC1CCN(c2nccnc2O[C@H]2C[C@@H](Nc3nc4ccccc4s3)C2)C1 (some centres undefined) | 1.07 |
| OCC1CCCN(c2nccnc2O[C@H]2C[C@@H](Nc3nc4ccccc4s3)C2)C1 (some centres undefined) | 3.62 |
| CN1CCN(c2nccnc2O[C@H]2C[C@@H](Nc3nc4ccccc4s3)C2)CC1 | 122 |
| N#CC1CCN(c2nccnc2O[C@H]2C[C@@H](Nc3ccc4ccccc4n3)C2)CC1 | 2.26 |
| CN1CCN(c2nccnc2O[C@H]2C[C@@H](Nc3ncc4ccccc4n3)C2)CC1 | 316 |
| OCC1CCN(c2nccnc2O[C@H]2C[C@@H](Nc3ncc4ccccc4n3)C2)CC1 | 10.9 |
| CC(=O)N1CCN(c2nccnc2O[C@H]2C[C@@H](Nc3ccc4ccccc4n3)C2)CC1 | 23.7 |
| c1cnc(O[C@H]2C[C@@H](Nc3ccc4ccccc4n3)C2)c(C2CCOCC2)c1 | 1.5 |
| c1ccc2nc(N[C@H]3C[C@@H](Oc4nccnc4C4CCOCC4)C3)ccc2c1 | 7.5 |
| O=C(c1nc2ccccc2[nH]1)[C@H]1C[C@H](Oc2ncccc2C2CCOCC2)C1 | 7.15 |
